TGI data for two compounds are collected here from PubChem BioAssay (NCI).

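Step 1: Grow cells in 96-well plates. Step 2: Expose to compound for 48 hours at 5 concentrations. Step 3: Interpolate endpoints linearly; if unreached, use highest concentration. TGI denotes the concentration required for complete inhibition of growth.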

Common to all, as to test: DTP human tumour cell line panel, 48 h
Assay [1] relates to IGROV1 ovarian.
The test system of assay [2] is EKVX NSCLC.
The test system of assay [3] is OVCAR-5 ovarian.
In assay [4] the test system is SW-620 colon.
Assay [5] has as its system MOLT-4 leukemia.
In assay [6] the test system is MDA-MB-435.
The subject of assay [7] is SNB-75 CNS.
For assay [8], the system named is MALME-3M melanoma.
Assay [9] has as its system ACHN renal.
The subject of assay [10] is NCI-H522 lung.
The subject of assay [11] is A549 NSCLC.
Assay [12] deals with UACC-62 melanoma.
Assay [13] deals with RPMI-8226 leukemia.
In assay [14] the test system is MDA-N.

Consider `O=c1c2c(F)c(F)c(F)c(F)c2sc2nccn12`, for which the TGI (commonly the concentration giving total growth inhibition) in [1] was 32.3 µM; in assay [2] it was 50.2 µM; in [3], 36.3 µM; in assay [4], 33 µM; in [5], 9.62 µM; in [6], 28.6 µM. Moreover, the TGI came to 50.4 µM in assay [7]; 35.4 µM in [8]; 30 µM in assay [9]; 37.2 µM in assay [10]; 36.7 µM in [11]; 31.8 µM in assay [12]. Moreover, the TGI in assay [13] stood at 42.4 µM; in [14], 29.4 µM.

In the case of `C1CN2CCNCCN(CCN1)CC2`, the TGI in assay [1], in assay [2], in assay [3], in assay [4], in [5] and in assay [6] was > 100 µM each time. Besides, the TGI in assay [7], in assay [8], in [9], in assay [10], in [11] and in [12] was > 100 µM throughout. Besides, the TGI in assay [13] and in [14] was > 100 µM each time.
